{
  "source": "patent US20070003591A1",
  "about": "“USE OF A PROPOLIS AS A COATING MATERIAL FOR MEDICAL IMPLANTS” (priority 2005, published 2007)",
  "origin": "cited, not measured here",
  "key": {"[1]": {"test_system": "transcription factor FKB in T cells", "conditions": "Márquez et al. 2004"}, "[2]": {"test_system": "transcription factor FKB in human breast cancer cells of the type MCF-7", "conditions": "MCF-7 cells; Watabe et al. 2004"}},
  "data": [
    {"smiles": "O=C(/C=C/c1ccc(O)c(O)c1)OCCc1ccccc1", "note": "[caffeic acid phenylethyl ester]", "values": [
      {"measurement": "inhibitor of the transcription factor FKB", "setting": "[1]", "value": "inhibitor"},
      {"measurement": "inhibitor of the transcription factor FKB", "setting": "[2]", "value": "inhibitor"}
    ]}
  ]
}
